“Also recorded” adds a separate entry of the source. Where two headings read alike, the source gives them in different places. Blank lines part the entries; values can stand above or below the compound they belong to.
Assays:
human DNA ligase IV = human DNA ligase IV (Homo sapiens, UniProt P49917); experiment: High-throughput fluorescence-based DNA joining (ligation) assay; assay type: biochemical; settings: for inhibition of human DNA ligase IV, in words: in vitro screen
How it was run: (§1)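 Ligation joins an AF488-labelled and a BHQ1-labelled oligonucleotide. After denaturation and renaturation with a 20-fold excess of unlabelled competitor strand, the product forms a quenched hairpin, so joining is read as loss of 518 nm fluorescence. Ligase III used a nicked duplex; ligase IV used two duplexes with short complementary single-strand ends.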

human DNA ligase III = target: T1, human DNA ligase III (Homo sapiens, UniProt P49916); experiment: as above; assay type: biochemical; settings: for inhibition at 100 µM: read-out: In vitro % inhib hLigIII 100; for % activity Inhibition hLigIII 100 uM: Ø not defined (0 in Table 5A)
T1 sequence (P49916 1-862 isoform P49916-4): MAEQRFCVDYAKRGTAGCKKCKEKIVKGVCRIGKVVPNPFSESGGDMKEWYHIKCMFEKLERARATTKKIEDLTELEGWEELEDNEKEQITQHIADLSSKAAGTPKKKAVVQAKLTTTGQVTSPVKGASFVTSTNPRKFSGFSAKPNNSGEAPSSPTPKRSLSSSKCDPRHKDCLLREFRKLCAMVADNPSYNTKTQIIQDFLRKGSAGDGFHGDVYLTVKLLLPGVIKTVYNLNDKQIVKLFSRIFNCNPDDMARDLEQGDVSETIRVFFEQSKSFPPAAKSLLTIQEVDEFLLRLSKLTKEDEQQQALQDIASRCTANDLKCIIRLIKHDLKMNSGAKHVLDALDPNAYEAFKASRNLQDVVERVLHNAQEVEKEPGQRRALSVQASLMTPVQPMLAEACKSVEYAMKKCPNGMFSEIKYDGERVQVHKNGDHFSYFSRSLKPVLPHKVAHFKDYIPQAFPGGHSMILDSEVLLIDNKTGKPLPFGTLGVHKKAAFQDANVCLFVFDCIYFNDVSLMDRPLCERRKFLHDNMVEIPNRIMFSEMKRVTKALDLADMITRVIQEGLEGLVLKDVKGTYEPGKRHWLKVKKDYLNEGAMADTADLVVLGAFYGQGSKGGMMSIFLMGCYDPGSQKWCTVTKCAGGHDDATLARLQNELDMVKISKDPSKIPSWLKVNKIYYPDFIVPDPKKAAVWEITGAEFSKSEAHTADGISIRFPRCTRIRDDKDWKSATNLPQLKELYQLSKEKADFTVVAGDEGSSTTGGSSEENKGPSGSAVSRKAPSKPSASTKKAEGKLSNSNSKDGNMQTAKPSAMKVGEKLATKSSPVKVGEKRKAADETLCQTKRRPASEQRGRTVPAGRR
How it was run: as §1

T4 DNA ligase = target: T2, T4 DNA ligase (Enterobacteria phage T4, UniProt P00970); experiment: High-throughput fluorescence-based DNA joining assay, non-specific inhibitor control; assay type: biochemical, bacteriophage T4
T2 construct: purchased NEB
T2 sequence (P00970 1-487): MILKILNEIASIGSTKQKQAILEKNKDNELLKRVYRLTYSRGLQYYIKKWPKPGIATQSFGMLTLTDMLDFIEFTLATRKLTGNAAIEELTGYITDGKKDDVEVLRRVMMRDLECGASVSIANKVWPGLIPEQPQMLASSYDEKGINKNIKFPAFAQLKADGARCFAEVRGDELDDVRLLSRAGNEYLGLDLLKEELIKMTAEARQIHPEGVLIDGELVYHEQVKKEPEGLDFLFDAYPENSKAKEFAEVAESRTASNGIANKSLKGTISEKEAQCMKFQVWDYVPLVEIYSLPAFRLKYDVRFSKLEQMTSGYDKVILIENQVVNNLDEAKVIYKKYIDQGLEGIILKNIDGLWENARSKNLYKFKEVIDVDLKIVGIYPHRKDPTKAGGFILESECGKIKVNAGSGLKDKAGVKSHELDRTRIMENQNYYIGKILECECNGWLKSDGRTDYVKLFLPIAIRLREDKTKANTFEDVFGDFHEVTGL
How it was run: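 This counter-screen used a FRET-based DNA joining assay. Duplicate reactions held 10 pmol nicked DNA substrate and 10 units T4 DNA ligase, with or without 100 μmol/L compound. T4 ligase lacks the DNA-binding domain targeted in silico, so compounds inhibiting it were flagged as non-specific, likely DNA-binding.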

hLigI = target: T3, hLigI (Homo sapiens, UniProt P18858); experiment: High-throughput fluorescence-based DNA joining (ligation) assay; assay type: biochemical; settings: for inhibition of hLigI (DNA ligase I), in words: in vitro screen, 100 μmol/L, the 15 hLigI inhibitors inhibited by >50%
T3 construct: made in house
T3 sequence (P18858 whole entry): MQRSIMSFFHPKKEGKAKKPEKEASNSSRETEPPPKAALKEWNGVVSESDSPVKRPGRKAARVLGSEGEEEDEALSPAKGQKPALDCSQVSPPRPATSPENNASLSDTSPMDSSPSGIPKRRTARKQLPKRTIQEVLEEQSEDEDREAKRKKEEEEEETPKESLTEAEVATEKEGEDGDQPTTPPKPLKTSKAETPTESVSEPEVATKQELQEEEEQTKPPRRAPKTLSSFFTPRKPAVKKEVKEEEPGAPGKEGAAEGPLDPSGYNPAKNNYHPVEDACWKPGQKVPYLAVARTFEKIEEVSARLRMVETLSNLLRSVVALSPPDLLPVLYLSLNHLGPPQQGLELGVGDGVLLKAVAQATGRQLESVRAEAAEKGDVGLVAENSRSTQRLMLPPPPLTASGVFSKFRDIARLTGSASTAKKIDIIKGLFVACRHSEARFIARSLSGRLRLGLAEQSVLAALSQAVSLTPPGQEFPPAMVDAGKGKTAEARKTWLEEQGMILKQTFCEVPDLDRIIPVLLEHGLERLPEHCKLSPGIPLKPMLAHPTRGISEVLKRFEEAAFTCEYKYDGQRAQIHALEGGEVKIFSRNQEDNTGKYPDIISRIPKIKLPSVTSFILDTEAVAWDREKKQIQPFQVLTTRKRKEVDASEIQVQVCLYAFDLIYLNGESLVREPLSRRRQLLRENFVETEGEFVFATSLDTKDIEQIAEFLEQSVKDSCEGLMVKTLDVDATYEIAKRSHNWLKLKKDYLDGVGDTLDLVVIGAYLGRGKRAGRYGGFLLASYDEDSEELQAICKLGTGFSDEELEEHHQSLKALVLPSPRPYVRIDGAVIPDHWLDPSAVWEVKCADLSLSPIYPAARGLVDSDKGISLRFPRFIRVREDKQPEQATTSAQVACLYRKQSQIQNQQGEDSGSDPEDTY
How it was run: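 Nicked DNA substrate (10 pmol) was incubated with 0.25 pmol hLigI, with or without 100 μmol/L test compound, in duplicate. Afterwards the DNA was denatured and renatured with a 20-fold excess of unmodified oligonucleotide. Ligation forms an AF488/BHQ1 hairpin, read as reduced fluorescence at 518 nm.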

hLigIIIβ = target: T4, hLigIIIβ (Homo sapiens, UniProt P49916); experiment: Radioactive gel-based DNA ligation assay; assay type: biochemical; settings: grades ±, Ø (key not given)
T4 sequence (P49916 1-862 isoform P49916-4): T1 sequence (P49916 1-862 isoform P49916-4)

[1] = system: Human DNA ligases I, III and IV and T4 DNA ligase; experiment: Step 3 of the ligation reaction: ligation of preadenylated nick by non-adenylated ligase; assay type: biochemical; settings: 100 μM, FIG. 3C
Procedure: To analyze step 3 of the ligation reaction, an adenylated labeled version of the 18-mer was prepared as described (24). The DNA substrate containing a preadenylated nick (0.5 pmol) and hLigI (0.05 pmol), hLigIIIβ (0.05 pmol), hLigIV/XRCC4 (0.1 pmol), or T4 DNA ligase (0.05 pmol) were incubated in ligation buffer without ATP, either in the presence or absence of the ligase inhibitors (100 μmol/L). Reactions were stopped by the addition of an equal volume of gel loading dye (95% formamide, 0.05% bromophenol blue, and 0.05% xylene cyanol). After heating at 95° C. for 5 min, DNA was separated by denaturing polyacrylamide gel electrophoresis. Labeled oligonucleotides were detected and quantitated in the dried gel by phosphorImager analysis (Molecular Dynamics).
Since the final two steps of the ligation reaction involve interactions with DNA, we examined the effects of the ligase inhibitors on the second (FIG. 3B) (The labeled ligase-adenylate form of human DNA ligases I, III and IV and T4 DNA ligase were incubated with a linear DNA substrate containing a single non-ligatable nick in the absence or presence of compounds 67, 82 and 189 (100 μM). After separation by denaturing gel electrophoresis, the labeled DNA-AMP complex was detected by phosphorimaging (26)) and third steps (FIG. 3C) of the ligation reaction using established assays (25,26) (Non-adenylated human DNA ligases I, III and IV and T4 DNA ligase were incubated with labeled DNA-AMP in the absence or presence of compounds 67, 82 and 189 (100 μM). After separation by denaturing gel electrophoresis, labeled ligated DNA was detected by phosphorimaging (25)).

hLigIV/XRCC4 = hLigIV/XRCC4 (Homo sapiens, UniProt P49917); experiment: Radioactive gel-based DNA ligation assay; assay type: biochemical; design: concentration or dose not given beside the values
hLigIV/XRCC4, sequence (P49917 whole entry): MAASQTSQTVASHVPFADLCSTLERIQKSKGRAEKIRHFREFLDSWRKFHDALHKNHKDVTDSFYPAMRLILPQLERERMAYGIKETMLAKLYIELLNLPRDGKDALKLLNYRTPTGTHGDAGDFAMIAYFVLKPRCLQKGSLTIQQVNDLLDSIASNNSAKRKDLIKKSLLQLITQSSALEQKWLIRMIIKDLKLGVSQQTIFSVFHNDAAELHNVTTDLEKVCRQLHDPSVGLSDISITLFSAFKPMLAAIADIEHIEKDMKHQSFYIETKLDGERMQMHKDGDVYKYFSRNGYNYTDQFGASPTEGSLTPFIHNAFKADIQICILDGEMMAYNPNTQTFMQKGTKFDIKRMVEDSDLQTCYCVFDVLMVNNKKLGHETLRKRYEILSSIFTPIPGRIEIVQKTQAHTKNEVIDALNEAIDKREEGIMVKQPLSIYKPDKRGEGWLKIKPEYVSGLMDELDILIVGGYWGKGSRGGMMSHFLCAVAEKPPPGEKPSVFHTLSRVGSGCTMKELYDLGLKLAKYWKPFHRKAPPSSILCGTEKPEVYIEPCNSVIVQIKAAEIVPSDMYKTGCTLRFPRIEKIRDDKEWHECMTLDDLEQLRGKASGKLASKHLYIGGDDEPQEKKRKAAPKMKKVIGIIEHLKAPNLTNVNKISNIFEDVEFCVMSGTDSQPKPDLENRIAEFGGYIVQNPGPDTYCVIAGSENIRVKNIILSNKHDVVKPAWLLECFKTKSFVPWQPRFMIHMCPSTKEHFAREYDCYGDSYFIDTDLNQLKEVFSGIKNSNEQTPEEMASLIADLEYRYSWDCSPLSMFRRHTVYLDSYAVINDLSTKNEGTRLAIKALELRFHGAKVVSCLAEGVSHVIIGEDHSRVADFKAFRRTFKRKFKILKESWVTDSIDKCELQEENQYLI
hLigIV/XRCC4, sequence (Q13426 whole entry partner): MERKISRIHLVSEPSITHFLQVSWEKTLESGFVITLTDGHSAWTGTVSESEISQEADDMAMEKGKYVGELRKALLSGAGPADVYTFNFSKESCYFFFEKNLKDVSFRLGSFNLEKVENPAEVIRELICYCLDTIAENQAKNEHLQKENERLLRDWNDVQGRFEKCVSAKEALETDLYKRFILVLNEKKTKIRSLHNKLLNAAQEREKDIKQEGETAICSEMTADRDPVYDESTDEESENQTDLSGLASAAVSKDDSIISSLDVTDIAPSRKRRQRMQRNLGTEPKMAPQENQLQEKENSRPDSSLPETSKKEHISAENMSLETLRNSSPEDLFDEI

[2] = system: MCF7, HCT116, HeLa, and MCF10A cells; experiment: Survival assay on cell panel (FIG. 9); assay type: cell-based, human; settings: Homo sapiens; cell line not stated
Text: FIG. 9. […] A, effect of L67 (left) and L189 (right) on the survival of MCF7 (Δ), HCT116 (□), HeLa (⋄), and MCF10A (upsidedown triangle) cells. B, normal breast epithelial MCF10A cells (open symbols) and breast cancer MCF7 cells (filled symbols) in the absence (circles) or presence of 3 μmol/L of L67 (squares) were exposed to increasing concentrations of MMS (left). Normal breast epithelial MCF10A cells (open symbols) and colon cancer HCT116 cells (filled symbols) in the absence (circles) or presence of 20 μmol/L of L189 (squares) were exposed to increasing doses of ionizing radiation (right). C, hLigI (I), hLigIIIα (III), and hLigIV (IV) were detected in extracts (400 μg) of the indicated cell lines by immunoblotting. To control for extract loading β-actin was also detected by immunoblotting.
For survival assays, cells were plated in 6 well plates and grown either in the absence or presence of ligase inhibitors. Where indicated, either MMS (0-50 μM) was added to the medium or the cells were irradiated in a Cs-137 irradiator (0-2.5 Gy). After two weeks, colonies were stained with crystal violet (Sigma) and then counted.

[3] = 100 μM, read-out: In vitro % inhib hLigIV 100
[4] = 100 uM, Ø not defined (0 in Table 5A)
[5] = 100 μM, read-out: In vitro % inhib T4 100
[6] = 100 μM, read-out: In vitro % inhib hLigI 100
[7] = 100 uM, Ø not defined (0 in Table 5A), read-out: % activity Inhibition hLigIV 100 uM

human DNA ligase IV, sequence (P49917 whole entry): as the sequence (P49917 whole entry) above
human DNA ligase IV, sequence (Q13426 whole entry partner): as the sequence (Q13426 whole entry partner) above

SMILES: CSc1ccc(C(=O)O)s1 [Compound 1]
inhibition at 100 µM (human DNA ligase IV; [3]): 0% | % activity Inhibition hLigIV 100 uM (human DNA ligase IV; [4]): Ø | inhibition at 100 µM (human DNA ligase III; 100 μM): 0% | % activity Inhibition hLigIII 100 uM (human DNA ligase III): Ø | inhibition at 100 µM (T4 DNA ligase; [5]): 0% | inhibition at 100 µM (T4 DNA ligase; read-out: % activity Inhibition LigT4 100 uM): 0% | inhibition at 100 µM (hLigI; 100 uM, read-out: % activity Inhibition hLigI 100 uM): 40.3 ± 8.6% | inhibition at 100 µM (hLigI; [6]): 40 ± 9% | inhibition of hLigI (DNA ligase I), in words (hLigI): specific for DNA ligase I | % activity Inhibition hLigIII gel (hLigIIIβ): Ø

inhibition of step 3 of the ligation reaction [1]: inhibit step 3
SMILES: O=C(O)CN1C(=O)C(=O)c2ccccc21 [Compound 76]

SMILES: NS(=O)(=O)c1ccc(CCNC(=O)CCS(=O)(=O)c2ccc(Br)cc2)cc1 [Compound 113]
In vitro % inhib hLigIV 100 (μM) (human DNA ligase IV; 100 μM): 83 ± 5% | % activity Inhibition hLigIV 100 uM (human DNA ligase IV; [4]): >50% | inhibition of human DNA ligase IV, in words (human DNA ligase IV): specifically inhibits both DNA ligases I and IV | In vitro % inhib hLigIII 100 (μM) (human DNA ligase III; 100 μM): 0% | % activity Inhibition hLigIII 100 uM (human DNA ligase III): Ø | % activity Inhibition hLigIV gel (hLigIV/XRCC4): 83% | % activity Inhibition LigT4 100 uM (T4 DNA ligase): 5.4 ± 4.5% | In vitro % inhib T4 100 (μM) (T4 DNA ligase; 100 μM): 5 ± 5% | % activity Inhibition hLigI 100 uM (hLigI; 100 uM): 53.4 ± 7.6% | In vitro % inhib hLigI 100 (μM) (hLigI; 100 μM): 53 ± 8% | hLigI_Inh % (100 μM) (hLigI; 100 μM, percentage of values obtained with DMSO alone): 53.4 ± 7.6% | inhibition of hLigI (DNA ligase I), in words (hLigI): inhibited hLigI; also recorded: specifically inhibits both DNA ligases I and IV | % activity Inhibition hLigIII gel (hLigIIIβ): Ø

SMILES: O=C(O)Cc1cncc(Br)c1 [Compound 122]
inhibition at 100 µM (human DNA ligase IV; [3]): 50 ± 5% | inhibition at 100 µM (human DNA ligase IV; [7]): 16.1 ± 19.1% | inhibition of human DNA ligase IV, in words (human DNA ligase IV): specific for DNA ligase IV | inhibition at 100 µM (human DNA ligase III; 100 μM): 0% | % activity Inhibition hLigIII 100 uM (human DNA ligase III): Ø | EC50 [2]: > 100 µM | % activity Inhibition hLigIV gel (hLigIV/XRCC4): 50% | % activity Inhibition LigT4 100 uM (T4 DNA ligase): Ø | inhibition at 100 µM (T4 DNA ligase; [5]): 0% | % activity Inhibition hLigI 100 uM (hLigI; 100 uM): Ø | inhibition at 100 µM (hLigI; [6]): 0%

SMILES: O=C(O)c1cnn2c(C(F)(F)F)cc(-c3ccco3)nc12 [Compound 215]
inhibition at 100 µM (human DNA ligase IV; [3]): 61 ± 1% | inhibition at 100 µM (human DNA ligase IV; [7]): 60.7 ± 1.3% | inhibition of human DNA ligase IV, in words (human DNA ligase IV): specific for DNA ligase IV | inhibition at 100 µM (human DNA ligase III; 100 μM): 0% | % activity Inhibition hLigIII 100 uM (human DNA ligase III): Ø | EC50 [2]: > 100 µM | % activity Inhibition hLigIV gel (hLigIV/XRCC4): 53% | % activity Inhibition LigT4 100 uM (T4 DNA ligase): Ø | inhibition at 100 µM (T4 DNA ligase; [5]): 0% | % activity Inhibition hLigI 100 uM (hLigI; 100 uM): Ø | inhibition at 100 µM (hLigI; [6]): 0%

Reference: US9757375B2, “Compounds that inhibit human DNA ligases and methods of treating cancer” (University of Maryland, Baltimore, priority 2007, dated 2017)
